Results reported in PubChem BioAssay AID2060616 (Molecular Pharmacology Branch, DTP, NCI, 2025).

Tested on: 377384-186-R-J1-PDC complex spheroid viability
Assay: Anticancer human tumor 377384-186-R-J1-PDC patient-derived pancreatic carcinoma cell line growth inhibition [CLK]
Conditions: for IC50: curve of first compound; for viability, T/C: stronger effect = lower value
Excerpt: A high-throughput screen of multi-cell type tumor spheroids was designed to identify active combinations of […] and targeted small molecules. Complex spheroids include a stromal component modeled by human endothelial cells (HUVEC) and fibroblasts modeled by human mesenchymal stem cells (MSCs). The concentration ranges selected for each drug and investigational agent were based upon clinically achievable concentrations if the clinical Cmax of the agent was known.
Compounds. The drugs and investigational agents: cirtuvivint (SM08502; NSC835563), CC-671 (NSC850746), vemurafenib (NSC761431), tapotoclax (NSC804041), sotorasib (NSC818433), adagrasib (NSC831453), MRTX-1133 (NSC836407), BAY2416964 (NSC825713), copanlisib (NSC816437), inavolisib (NSC800729), abemaciclib (NSC768073), osimertinib (NSC779217), entinostat (NSC756642), eltanexor (KPT-8602, NSC794443), venetoclax (NSC766270), ceralasertib (NSC777638), bortezomib (NSC756655), olaparib (NSC753686), talazoparib (NSC767125), alisertib (NSC759677), peposertib (NSC802822), gemcitabine (NSC613327), 5-fluorouracil (NSC19893), SN-38 (NSC673596), oxaliplatin (NSC266046), paclitaxel (NSC125973), and doxorubicin (NSC123127), were obtained from the National Cancer Institute (NCI) Developmental Therapeutics Program Chemical Repository. The FDA-approved anticancer drug set is available from the Developmental Therapeutics Program at https://dtp.cancer.gov/organization/dscb/obtaining/available plates.htm. […] The stock solutions were prepared in dimethyl sulfoxide (DMSO, Sigma-Aldrich, St. Louis, MO, cat. D2650), except for the platinum complexes which were prepared in saline (Quality Biological, Gaithersburg, MD, cat. 114-055-101), at 800-fold the tested concentration and stored at -70 degrees C prior to their use. All drugs and investigational agents were tested over a range starting from a high concentration at or near the clinical Cmax and decreasing in half-log increments. If the clinical Cmax for an agent had not been determined, the highest concentration tested was 10 microM.
Cell Culture. All cells were maintained in an incubator at 37 degrees C and 5% CO2 with 95% humidity. The PDC lines were cultured according to standard operating procedures established by the NCI PDMR. Briefly, all PDCs were thawed and cultured in Matrigel-coated flasks prepared with a working solution of 1X Ham's F-12 nutrient mix, without supplementation (Invitrogen, Waltham, MA, cat. 11765054), 100 U/mL penicillin-streptomycin (Invitrogen, cat. 15140122), and 2.5% Matrigel (Corning Inc., Corning, NY, cat. 354248) for the first three passages. The 947758-054-R-J2-PDC line was cultured in 6B/Colon 1A media, which includes advanced DMEM/F-12 (Thermo Fisher Scientific, cat. 12634028), 10 mM HEPES (Thermo Fisher Scientific, cat. 15630080), 1X GlutaMAX supplement (Thermo Fisher Scientific, cat. 35050061), 0.1 mg/mL primocin (InvivoGen, cat. ant-pm-2), 10% defined fetal bovine serum, heat inactivated (HyClone Laboratories Inc., cat. SH30070.03HI), 1.25 mM N-Acetyl-L-cysteine (Sigma-Aldrich, cat. A9165), 10 mM nicotinamide (Sigma-Aldrich, cat. N0636), 1X B-27 supplement (Thermo Fisher Scientific, cat. 17504044), 1X N-2 supplement (Thermo Fisher Scientific, cat. 17502048), and 10 microM Y-27632 dihydrochloride (Tocris Bioscience, cat. 1254). The 876862-298-R-J1-PDC was cultured in 6E media, which includes all 6B/Colon 1A media components plus 50% L-WRN conditioned media (ATCC, cat. CRL-3276), 50 ng/mL recombinant human EGF recombinant protein (hEGF; Thermo Fisher Scientific, cat. PHG0311), 10 ng/mL recombinant human fibroblast growth factor 10 (hGFG-10; PeproTech, cat. 100-26), 1 ng/mL recombinant human fibroblast growth factor 2 (hFGF-2; PeproTech, cat. 100-18B), and 1 µM prostaglandin E2 (PGE2; Tocris, cat. 2296). The 227483-062-R1-J1-PDC line was cultured in Panc media, containing all 6E components except hFGF-2, with the addition of 500 nM SB-431542 (Selleckchem, cat. S1067) and 10 nM gastrin (Tocris, cat. 3006). […]

[1] = second compound 0.0316 µM, first compound 0.0316 µM
[2] = second compound 0.0316 µM, first compound 0.1 µM
[3] = second compound 0.0316 µM, first compound 0.316 µM
[4] = second compound 0.0316 µM, first compound 1 µM
[5] = second compound 0.0316 µM, first compound 3.16 µM
[6] = second compound 0.0316 µM, first compound 10 µM
[7] = second compound 0.1 µM, first compound 0.0316 µM
[8] = second compound 0.1 µM, first compound 0.1 µM
[9] = second compound 0.1 µM, first compound 0.316 µM
[10] = second compound 0.1 µM, first compound 1 µM
[11] = second compound 0.1 µM, first compound 3.16 µM
[12] = second compound 0.1 µM, first compound 10 µM
[13] = second compound 0.316 µM, first compound 0.0316 µM
[14] = second compound 0.316 µM, first compound 0.1 µM
[15] = second compound 0.316 µM, first compound 0.316 µM
[16] = second compound 0.316 µM, first compound 1 µM
[17] = second compound 0.316 µM, first compound 3.16 µM
[18] = second compound 0.316 µM, first compound 10 µM
[19] = second compound 1 µM, first compound 0.0316 µM
[20] = second compound 1 µM, first compound 0.1 µM
[21] = second compound 1 µM, first compound 0.316 µM
[22] = second compound 1 µM, first compound 1 µM
[23] = second compound 1 µM, first compound 3.16 µM
[24] = second compound 1 µM, first compound 10 µM
[25] = second compound 3.16 µM, first compound 0.0316 µM
[26] = second compound 3.16 µM, first compound 0.1 µM
[27] = second compound 3.16 µM, first compound 0.316 µM
[28] = second compound 3.16 µM, first compound 1 µM
[29] = second compound 3.16 µM, first compound 3.16 µM
[30] = second compound 3.16 µM, first compound 10 µM
[31] = second compound 10 µM, first compound 0.0316 µM
[32] = second compound 10 µM, first compound 0.1 µM
[33] = second compound 10 µM, first compound 0.316 µM
[34] = second compound 10 µM, first compound 1 µM
[35] = second compound 10 µM, first compound 3.16 µM
[36] = second compound 10 µM, first compound 10 µM
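Further: spheroids exposed to agents for 7 days before reading.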
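Wherever viability, T/C is given: luminescence signal used as a stand-in for viable cells.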

## C=C(F)C(=O)N1CCN(c2nc(OCC3CCCN3C)nc3c2CCN(c2cccc4cccc(Cl)c24)C3)CC1CC#N (stereo unspecified) + CN1CCN(c2cc(C(=O)Nc3cc4cc(-c5cnn(C)c5)ccc4cn3)ccn2)CC1
Second compound 0.0316 µM
  IC50: 1890 nM
Second compound 0.1 µM
  IC50: 1630 nM
Second compound 0.316 µM
  IC50: < 31.6 nM
Second compound 1 µM
  IC50: < 31.6 nM
Second compound 3.16 µM
  IC50: < 31.6 nM
Second compound 10 µM
  IC50: < 31.6 nM
[1]
  viability, T/C: 96.6%
[2]
  viability, T/C: 97.2%
[3]
  viability, T/C: 91.7%
[4]
  viability, T/C: 83.5%
[5]
  viability, T/C: 23.2%
[6]
  viability, T/C: 0.18%
[7]
  viability, T/C: 94.1%
[8]
  viability, T/C: 101%
[9]
  viability, T/C: 81.4%
[10]
  viability, T/C: 72.5%
[11]
  viability, T/C: 22.4%
[12]
  viability, T/C: 0.15%
[13]
  viability, T/C: 30.5%
[14]
  viability, T/C: 32.5%
[15]
  viability, T/C: 30.3%
[16]
  viability, T/C: 23.9%
[17]
  viability, T/C: 17.9%
[18]
  viability, T/C: 0.31%
[19]
  viability, T/C: 1.57%
[20]
  viability, T/C: 1.56%
[21]
  viability, T/C: 2.02%
[22]
  viability, T/C: 1.49%
[23]
  viability, T/C: 1.66%
[24]
  viability, T/C: 0.44%
[25]
  viability, T/C: 0.52%
[26]
  viability, T/C: 0.83%
[27]
  viability, T/C: 0.4%
[28]
  viability, T/C: 0.56%
[29]
  viability, T/C: 0.32%
[30]
  viability, T/C: 0.34%
[31]
  viability, T/C: 0.6%
[32]
  viability, T/C: 0.4%
[33]
  viability, T/C: 0.42%
[34]
  viability, T/C: 0.45%
[35]
  viability, T/C: 0.17%
[36]
  viability, T/C: 0.19%

## C=CC(=O)N1CCN(c2nc(=O)n(-c3c(C)ccnc3C(C)C)c3nc(-c4c(O)cccc4F)c(F)cc23)C(C)C1 (stereo unspecified) + CN1CCN(c2cc(C(=O)Nc3cc4cc(-c5cnn(C)c5)ccc4cn3)ccn2)CC1
Second compound 0.0316 µM
  IC50: > 10000 nM
Second compound 0.1 µM
  IC50: > 10000 nM
Second compound 0.316 µM
  IC50: < 31.6 nM
Second compound 1 µM
  IC50: < 31.6 nM
Second compound 3.16 µM
  IC50: < 31.6 nM
Second compound 10 µM
  IC50: < 31.6 nM
[1]
  viability, T/C: 95.5%
[2]
  viability, T/C: 101%
[3]
  viability, T/C: 114%
[4]
  viability, T/C: 131%
[5]
  viability, T/C: 117%
[6]
  viability, T/C: 101%
[7]
  viability, T/C: 104%
[8]
  viability, T/C: 92.8%
[9]
  viability, T/C: 110%
[10]
  viability, T/C: 112%
[11]
  viability, T/C: 116%
[12]
  viability, T/C: 88.3%
[13]
  viability, T/C: 27.9%
[14]
  viability, T/C: 35.2%
[15]
  viability, T/C: 38.1%
[16]
  viability, T/C: 41.4%
[17]
  viability, T/C: 37.6%
[18]
  viability, T/C: 24.7%
[19]
  viability, T/C: 1.29%
[20]
  viability, T/C: 1.17%
[21]
  viability, T/C: 1.31%
[22]
  viability, T/C: 1.24%
[23]
  viability, T/C: 2.37%
[24]
  viability, T/C: 2.29%
[25]
  viability, T/C: 0.53%
[26]
  viability, T/C: 0.78%
[27]
  viability, T/C: 0.7%
[28]
  viability, T/C: 0.78%
[29]
  viability, T/C: 1.84%
[30]
  viability, T/C: 3.69%
[31]
  viability, T/C: 0.44%
[32]
  viability, T/C: 0.59%
[33]
  viability, T/C: 1.65%
[34]
  viability, T/C: 0.86%
[35]
  viability, T/C: 1.07%
[36]
  viability, T/C: 0.98%

## COC1C=CCC(C)C(C)S(=O)(=O)NC(=O)c2ccc3c(c2)N(CC2CCC21)CC1(CCCc2cc(Cl)ccc21)CO3 (stereo unspecified) + CN1CCN(c2cc(C(=O)Nc3cc4cc(-c5cnn(C)c5)ccc4cn3)ccn2)CC1
Second compound 0.0316 µM
  IC50: 5480 nM
Second compound 0.1 µM
  IC50: 4950 nM
Second compound 0.316 µM
  IC50: < 31.6 nM
Second compound 1 µM
  IC50: < 31.6 nM
Second compound 3.16 µM
  IC50: < 31.6 nM
Second compound 10 µM
  IC50: < 31.6 nM
[1]
  viability, T/C: 114%
[2]
  viability, T/C: 95.2%
[3]
  viability, T/C: 96.5%
[4]
  viability, T/C: 102%
[5]
  viability, T/C: 84.9%
[6]
  viability, T/C: 11.8%
[7]
  viability, T/C: 115%
[8]
  viability, T/C: 69.2%
[9]
  viability, T/C: 98%
[10]
  viability, T/C: 84.5%
[11]
  viability, T/C: 76.8%
[12]
  viability, T/C: 10.2%
[13]
  viability, T/C: 32.5%
[14]
  viability, T/C: 20.9%
[15]
  viability, T/C: 24.3%
[16]
  viability, T/C: 20%
[17]
  viability, T/C: 20.5%
[18]
  viability, T/C: 3.02%
[19]
  viability, T/C: 0.47%
[20]
  viability, T/C: 1.66%
[21]
  viability, T/C: 1.4%
[22]
  viability, T/C: 1.15%
[23]
  viability, T/C: 0.84%
[24]
  viability, T/C: 0.75%
[25]
  viability, T/C: 0.58%
[26]
  viability, T/C: 0.33%
[27]
  viability, T/C: 0.31%
[28]
  viability, T/C: 0.37%
[29]
  viability, T/C: 0.49%
[30]
  viability, T/C: 0.39%
[31]
  viability, T/C: 0.42%
[32]
  viability, T/C: 0.68%
[33]
  viability, T/C: 0.44%
[34]
  viability, T/C: 0.59%
[35]
  viability, T/C: 0.53%
[36]
  viability, T/C: 0.17%
